Test results reported in US10206906B2, “Synergistic combination of a phenolic-rich maple syrup extract and an antibiotic” (priority 2015, dated 2019).
Converted amounts (≈) assume the structure as drawn.

Columns and labels:
[1] = tested on: P. aeruginosa PA14; experiment: Determination of minimum inhibitory concentration (MIC); assay type: cell-based; settings: Pseudomonas aeruginosa, PA14, 18 h; read-out: MIC
Experimental: (§1) A range of concentration of antibiotics, ciprofloxacin (0.0003-0.25 μg mL^−1) and carbenicillin (0.5-512 μg mL^−1), are chosen due to their known potency against all four bacterial strains. Dilutions are prepared in flat bottom, 96 well microtitre plates (Falcon™, Corning™, Fisher Scientific, ON, Canada). Each well of a microtitre plate is then inoculated with the desired bacterial strain (grown in MHB-II and diluted to […]) and the plate is incubated at 37° C. for 18 h under static conditions. Bacterial growth is assessed by (i) monitoring the optical density of the cell suspension in each well at 600 nm (OD600 nm), and (ii) the resazurin microtitre plate assay. In the resazurin microtitre plate assay, each well of a microtitre plate is supplemented with 20 μM resazurin, incubated in the dark for 20 min at room temperature, followed by fluorescence measurements at ex/em 570/590 nm using a TECAN Infinite M200 Pro microplate reader (Tecan Group Ltd., Switzerland). The lowest concentration of a compound able to prevent increase in OD600 nm and resazurin fluorescence intensity is recorded as the MIC for that compound.

[2] = tested on: E. coli CFT073; experiment: as above; assay type: cell-based; settings: Escherichia coli, CFT073, 18 h; read-out: MIC
Experimental: as §1

[3] = tested on: P. aeruginosa PAO1; experiment: as above; assay type: cell-based; settings: Pseudomonas aeruginosa, PAO1, 18 h; read-out: MIC
Experimental: as §1

[4] = tested on: P. mirabilis HI4320; experiment: as above; assay type: cell-based; settings: Proteus mirabilis, HI4320, 18 h; read-out: MIC
Experimental: as §1

[5] = tested on: P. mirabilis HI4320; experiment: Checkerboard microdilution assay (growth inhibition synergy); assay type: cell-based, Proteus mirabilis
Experimental: (§2) The checkerboard microdilution assay is used for evaluation of in vitro antimicrobial synergy between two compounds (i.e., antibiotic/PRMSE, antibiotic/pure phenolic compound, and pure phenolic compounds with each other). Two-fold serial dilutions are prepared in MHB-II for each of the two compounds under study. The serial dilutions are then loaded into 96 well plates to achieve combinations having different concentrations of each of the two compounds. Each well is subsequently inoculated with 10^6 CFU mL^−1 of the desired bacterial strain and incubated at 37° C. for 18 h under static conditions. The Fractional Inhibitory Concentration Index (FICI) for each combination is calculated by using the following formula: FICcomponent 1=MICcomponent 1, in combination/MICcomponent 1,alone FICI=FICcomponent 1+FICcomponent 2
(§3) The FICIs are interpreted as follows: FICI of […] (synergy); 0.5<FICI ≤1 (no interaction/indifference); FICI of >4 (antagonism).

[6] = tested on: E. coli CFT073; experiment: as above; assay type: cell-based, Escherichia coli
Experimental: as §2, §3

[7] = tested on: P. aeruginosa PA14; experiment: as above; assay type: cell-based, Pseudomonas aeruginosa
Experimental: as §2, §3

[8] = tested on: P. aeruginosa PAO1; experiment: as above; assay type: cell-based, Pseudomonas aeruginosa
Experimental: as §2, §3

[9] = tested on: P. mirabilis HI4320; experiment: Bacterial colony forming ability (CFU counts after exposure); assay type: cell-based, Proteus mirabilis; settings: log decrease vs untreated control; 4 × MIC, 10 min; CTAB 10 μM
Experimental: (§4) The BacLight kit (L-13152, Invitrogen™, Life Technologies Inc., Canada) is used to assess cell membrane damage. Overnight bacterial cultures are diluted 1:40 in fresh MHBII broth to a final volume of 5 mL, grown to an OD600 of 0.5-0.6, washed with filter-sterilized 10 mM phosphate buffered saline (PBS, pH 7.0) and resuspended in 1/10 of the original volume. […] Cultures are incubated at room temperature (21±2° C.) on a tube rocker for 10 min. At the end of the incubation period, an aliquot is taken for CFU counts and the remaining suspension is washed with 10 mM PBS and resuspended to an OD600) of 0.3. An aliquot (100 μL) of each bacterial suspension is removed and added to a 96-well, black, clear-bottom plate (Corning™, Fisher Scientific, ON, Canada) along with an equal volume of the BacLight™ reagent (2× stock solution, L13152, Invitrogen™, Life Technologies Inc., Canada) and the plates are incubated for 10 min at room temperature in the dark. At the end of the incubation period, fluorescence intensity is recorded for both kit components, SYTO-9 (ex/em 485/530 nm) and propidium iodide (ex/em 485/645 nm), using the microplate reader. Fluorescence readings from samples are normalized to the values obtained from untreated control to determine the ratio of membrane compromised cells to cells with intact membrane. Cetyltrimethylammonium bromide (CTAB, Sigma-Aldrich Canada), a cationic detergent that is known to cause membrane damage, is used at concentration of 10 μM as a positive control for membrane disruption.

[10] = tested on: E. coli CFT073; experiment: as above; assay type: cell-based, Escherichia coli; settings: log decrease vs untreated control; 4 × MIC, 10 min; CTAB 10 μM
Experimental: as §4

[11] = tested on: cell membrane of P. aeruginosa PA14; experiment: BacLight membrane integrity assay; assay type: cell-based, Pseudomonas aeruginosa; settings: PRMSE, catechol at 4 × MIC for 10 min; CTAB 10 μM; untreated = 100
Experimental: as §4

[12] = tested on: cell membrane of P. aeruginosa PAO1; experiment: BacLight membrane integrity assay; assay type: cell-based, Pseudomonas aeruginosa; settings: PRMSE, catechol at 4 × MIC for 10 min; CTAB 10 μM; untreated = 100
Experimental: as §4

[13] = tested on: cell membrane of E. coli CFT073; experiment: BacLight membrane integrity assay; assay type: cell-based, Escherichia coli; settings: PRMSE, catechol at 4 × MIC for 10 min; CTAB 10 μM; untreated = 100
Experimental: as §4, with “Cetyltrimethylammonium bromide (CTAB, Sigma-Aldrich Canada), a cationic detergent that is known to cause membrane damage, is used at concentration of 10 μM as a positive control for membrane disruption.” left out

[14] = tested on: P. aeruginosa PA14; experiment: Bacterial colony forming ability (CFU counts after exposure); assay type: cell-based, Pseudomonas aeruginosa; settings: log decrease vs untreated control; 4 × MIC, 10 min; CTAB 10 μM
Experimental: as §4

[15] = tested on: P. aeruginosa PAO1; experiment: as above; assay type: cell-based, Pseudomonas aeruginosa; settings: log decrease vs untreated control; 4 × MIC, 10 min; CTAB 10 μM
Experimental: as §4

[16] = tested on: cell membrane of P. mirabilis HI4320; experiment: BacLight membrane integrity assay; assay type: cell-based, Proteus mirabilis; settings: PRMSE, catechol at 4 × MIC for 10 min; CTAB 10 μM; untreated = 100
Experimental: as §4, with “Cetyltrimethylammonium bromide (CTAB, Sigma-Aldrich Canada), a cationic detergent that is known to cause membrane damage, is used at concentration of 10 μM as a positive control for membrane disruption.” left out

[17] = tested on: outer membrane of P. aeruginosa PAO1; experiment: Outer membrane permeabilization, NPN uptake assay; assay type: cell-based, Pseudomonas aeruginosa; settings: positive control gentamicin, above and below MICs
Experimental: (§5) The cells are harvested, washed with 5 mM HEPES buffer (pH 7.2), and resuspended in the same volume (10 mL) of 5 mM HEPES buffer (pH 7.2) containing 1 mM N-ethylmaleimide (NEM, Sigma-Aldrich Canada). Aliquots (1 mL) are mixed with NPN to a final concentration of 10 μM (in cell suspension) and fluorescence is measured using the microplate reader (ex/em 350/420 nm).

[18] = tested on: outer membrane of P. aeruginosa PA14; experiment: Outer membrane permeabilization, NPN uptake assay; assay type: cell-based, Pseudomonas aeruginosa; settings: positive control gentamicin, above and below MICs
Experimental: as §5

[19] = tested on: outer membrane of E. coli CFT073; experiment: Outer membrane permeabilization, NPN uptake assay; assay type: cell-based, Escherichia coli; settings: positive control gentamicin, above and below MICs
Experimental: as §5

[20] = tested on: outer membrane of P. mirabilis HI4320; experiment: Outer membrane permeabilization, NPN uptake assay; assay type: cell-based, Proteus mirabilis; settings: positive control gentamicin, above and below MICs
Experimental: as §5

[21] = ciprofloxacin in combination with the labelled phenolic constituent
[22] = labelled constituent + catechol, * = synergistic
[23] = labelled constituent + gallic acid, * = synergistic
[24] = labelled constituent combined with catechol
[25] = labelled constituent combined with gallic acid
[26] = labelled phenolic constituent + ciprofloxacin, * = synergistic interaction
[27] = labelled phenolic constituent in combination with ciprofloxacin

## O=Cc1ccc(O)c(O)c1 [catechaldehyde, 3,4-dihydroxybenzaldehyde]
[1]
  MIC: 1250 µg/mL (≈ 9.05 mM)
[2]
  MIC: 1250 µg/mL (≈ 9.05 mM)
[3]
  MIC: 1250 µg/mL (≈ 9.05 mM)
[4]
  MIC: 1250 µg/mL (≈ 9.05 mM)
[5]; [21]
  FIC of ciprofloxacin: 0.5
[5]; [22]
  FICI, catechol: 0.5*
[5]; [23]
  FICI, gallic acid: 0.37*
[5]; [24]
  FIC, catechol: 0.25
[5]; [25]
  FIC, gallic acid: 0.13
[5]; [26]
  FICI: 1.5
[5]; [27]
  FIC of compound: 1
[6]; [21]
  FIC of ciprofloxacin: 1
[6]; [22]
  FICI, catechol: 0.5*
[6]; [23]
  FICI, gallic acid: 0.5*
[6]; [24]
  FIC, catechol: 0.25
[6]; [25]
  FIC, gallic acid: 0.25
[6]; [26]
  FICI: 2
[6]; [27]
  FIC of compound: 1
[7]; [21]
  FIC of ciprofloxacin: 1
[7]; [22]
  FICI, catechol: 0.5*
[7]; [23]
  FICI, gallic acid: 0.5*
[7]; [24]
  FIC, catechol: 0.25
[7]; [25]
  FIC, gallic acid: 0.25
[7]; [26]
  FICI: 2
[7]; [27]
  FIC of compound: 1
[8]; [21]
  FIC of ciprofloxacin: 0.5
[8]; [22]
  FICI, catechol: 0.37*
[8]; [23]
  FICI, gallic acid: 0.37*
[8]; [24]
  FIC, catechol: 0.25
[8]; [25]
  FIC, gallic acid: 0.13
[8]; [26]
  FICI: 1.01
[8]; [27]
  FIC of compound: 0.51

## CCCCCCCCCCCCCCCC[N+](C)(C)C.[Br-] [CTAB, cetyltrimethyl-ammonium bromide, reference compound]
[9]
  Bacterial colony forming ability (Δ log CFU mL^−1): 4.5 Δ log CFU mL^−1
[10]
  Bacterial colony forming ability (Δ log CFU mL^−1): 5.7 Δ log CFU mL^−1
[11]
  % cells with uncompromised membrane: 0%
[12]
  % cells with uncompromised membrane: 0%
[13]
  % cells with uncompromised membrane (BacLight assay): 0%
[14]
  Bacterial colony forming ability (Δ log CFU mL^−1): 4.9 Δ log CFU mL^−1
[15]
  Bacterial colony forming ability (Δ log CFU mL^−1): 5.1 Δ log CFU mL^−1
[16]
  % cells with uncompromised membrane: 0%

## gentamicin [reference compound]
[17]
  Minimum permeabilization concentration: 1 µg/mL
[18]
  Minimum permeabilization concentration: 1 µg/mL
[19]
  Minimum permeabilization concentration (NPN assay): 0.006 µg/mL
[20]
  Minimum permeabilization concentration: 0.013 µg/mL
